Patent publication US20230085307A1, “PYRIDAZINONE COMPOUND AND HERBICIDE” (NISSAN CHEMICAL CORPORATION, priority 2019, published 2023)

Columns and labels:
[1] = tested on: wild oat; experiment: Test Example 4: herbicidal effect by soil treatment (Table 19, symbol I); type: in vivo, wild oat (Avena fatua); settings: 320 g/ha
How it was run: (§1)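 In this soil treatment, the formulated compound reached the seeds only through the soil: seeds were buried about 1.5 cm deep in sterilized diluvial soil, then the diluted emulsion was sprayed over the surface. After three weeks at 25° C. to 30° C. in a greenhouse, effects were graded on criteria from an earlier test.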

[2] = tested on: wild oat; experiment: Test Example 5: herbicidal effect by foliage application, plastic box (Table 20, symbol I); type: in vivo, wild oat (Avena fatua); settings: foliage application, 320 g/ha, evaluated three weeks after application
How it was run: (§2)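 Plants were sown into sterilized diluvial soil under about 1.5 cm cover and kept in a greenhouse at 25° C. to 30° C. Fourteen days on, foliage received an even spray of the diluted emulsion. Herbicidal or crop effect was judged three weeks afterwards.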

[3] = tested on: Italian ryegrass; experiment: Test Example 5: herbicidal effect by foliage application, plastic box (Table 20, symbol K); type: in vivo, Italian ryegrass (Lolium multiflorum); settings: foliage application, 320 g/ha, evaluated three weeks after application
How it was run: as §2

[4] = tested on: chickweed; experiment: Test Example 5: herbicidal effect by foliage application, plastic box (Table 20, symbol P); type: in vivo, common chickweed (Stellaria media); settings: foliage application, 320 g/ha, evaluated three weeks after application
How it was run: as §2

[5] = tested on: windgrass; experiment: Test Example 5: herbicidal effect by foliage application, plastic box (Table 20, symbol L); type: in vivo, windgrass (Apera spica-venti); settings: foliage application, 320 g/ha, evaluated three weeks after application
How it was run: as §2

[6] = tested on: redroot pigweed; experiment: Test Example 5: herbicidal effect by foliage application, plastic box (Table 20, symbol N); type: in vivo, redroot pigweed (Amaranthus retroflexus); settings: foliage application, 320 g/ha, evaluated three weeks after application
How it was run: as §2

[7] = tested on: green foxtail; experiment: Test Example 4: herbicidal effect by soil treatment (Table 19, symbol G); type: in vivo, green foxtail (Setaria viridis); settings: 320 g/ha
How it was run: as §1

[8] = tested on: barnyard grass; experiment: Test Example 4: herbicidal effect by soil treatment (Table 19, symbol H); type: in vivo, barnyard grass (Echinochloa crus-galli); settings: 320 g/ha
How it was run: as §1

[9] = tested on: velvetleaf; experiment: Test Example 5: herbicidal effect by foliage application, plastic box (Table 20, symbol M); type: in vivo, velvetleaf (Abutilon theophrasti); settings: foliage application, 320 g/ha, evaluated three weeks after application
How it was run: as §2

[10] = tested on: chickweed; experiment: Test Example 4: herbicidal effect by soil treatment (Table 19, symbol P); type: in vivo, common chickweed (Stellaria media); settings: 320 g/ha
How it was run: as §1

[11] = tested on: persian speedwell; experiment: Test Example 5: herbicidal effect by foliage application, plastic box (Table 20, symbol R); type: in vivo, Persian speedwell (Veronica persica); settings: foliage application, 320 g/ha, evaluated three weeks after application
How it was run: as §2

[12] = tested on: redroot pigweed; experiment: Test Example 4: herbicidal effect by soil treatment (Table 19, symbol N); type: in vivo, redroot pigweed (Amaranthus retroflexus); settings: 320 g/ha
How it was run: as §1

[13] = tested on: green foxtail; experiment: Test Example 5: herbicidal effect by foliage application, plastic box (Table 20, symbol G); type: in vivo, green foxtail (Setaria viridis); settings: foliage application, 320 g/ha, evaluated three weeks after application
How it was run: as §2

[14] = tested on: late watergrass; experiment: Test Example 2: herbicidal activity, application during weed generation under submerged conditions (Table 17, symbol A); type: in vivo, late watergrass (Echinochloa oryzicola); settings: AAH 320 g/ha; application during weed generation, submerged conditions
How it was run: (§3)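 Effect on each weed is rated three weeks post-treatment, using the same scoring criteria as the preceding test. Plants grow from mixed-sown seed in flooded alluvial soil (4 cm water) at 25° C. to 30° C., and are treated at one to two leaves with diluted emulsion dropped onto the water.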

[15] = tested on: southern crabgrass; experiment: Test Example 4: herbicidal effect by soil treatment (Table 19, symbol F); type: in vivo, southern crabgrass (Digitaria ciliaris); settings: 320 g/ha
How it was run: as §1

[16] = tested on: Japanese bulrush; experiment: Test Example 2: herbicidal activity, application during weed generation under submerged conditions (Table 17, symbol B); type: in vivo, Japanese bulrush (Schoenoplectus juncoides); settings: AAH 320 g/ha; application during weed generation, submerged conditions
How it was run: as §3

[17] = tested on: barnyard grass; experiment: Test Example 3: herbicidal effect by foliage application, Wagner pot (Table 18, symbol H); type: in vivo, barnyard grass (Echinochloa crus-galli); settings: 320 g/ha
How it was run: (§4)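 Plants were sown in alluvial soil held under 0.1–0.5 cm standing water and grown 14 days in a greenhouse at 25–30 °C. An emulsifiable formulation, water-diluted to the set dose, was then sprayed onto the foliage, and effects were scored three weeks later using previously defined criteria.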

[18] = tested on: Italian ryegrass; experiment: Test Example 4: herbicidal effect by soil treatment (Table 19, symbol K); type: in vivo, Italian ryegrass (Lolium multiflorum); settings: 320 g/ha
How it was run: as §1

[19] = tested on: blackgrass; experiment: Test Example 5: herbicidal effect by foliage application, plastic box (Table 20, symbol J); type: in vivo, blackgrass (Alopecurus myosuroides); settings: foliage application, 320 g/ha, evaluated three weeks after application
How it was run: as §2

[20] = tested on: rice flat sedge; experiment: Test Example 3: herbicidal effect by foliage application, Wagner pot (Table 18, symbol E); type: in vivo, rice flat sedge (Cyperus iria); settings: 320 g/ha
How it was run: as §4

[21] = tested on: lambsquarters; experiment: Test Example 4: herbicidal effect by soil treatment (Table 19, symbol O); type: in vivo, lambsquarters (Chenopodium album); settings: 320 g/ha
How it was run: as §1

[22] = tested on: velvetleaf; experiment: Test Example 4: herbicidal effect by soil treatment (Table 19, symbol M); type: in vivo, velvetleaf (Abutilon theophrasti); settings: 320 g/ha
How it was run: as §1

SMILES | herbicidal effect rating, I: wild oat [1] | herbicidal effect on I: wild oat [2] | herbicidal effect on K: Italian ryegrass [3] | herbicidal effect on P: chickweed [4] | herbicidal effect on L: windgrass [5] | herbicidal effect on N: redroot pigweed [6] | herbicidal effect rating, G: green foxtail [7] | herbicidal effect rating, H: barnyard grass [8] | herbicidal effect on M: velvetleaf [9] | herbicidal effect rating, P: chickweed [10] | herbicidal effect on R: persian speedwell [11] | herbicidal effect rating, N: redroot pigweed [12] | herbicidal effect on G: green foxtail [13] | herbicidal effect rating, A: late watergrass [14] | herbicidal effect rating, F: southern crabgrass [15] | herbicidal effect rating, B: Japanese bulrush [16] | herbicidal effect on H (barnyard grass), rating 0-5 [17] | herbicidal effect rating, K: Italian ryegrass [18] | herbicidal effect on J: blackgrass [19] | herbicidal effect on E (rice flat sedge), rating 0-5 [20] | other results
CCCC(=O)Oc1c(C)nn(C)c(=O)c1-c1c(-c2ccc(C(C)=O)cc2)sc2ccc(F)cc12 [2-078] | 0 (Herbicidal rate of 5% or less (almost no effect)) | 2 (Herbicidal rate of 20% or more and less than 40%) | 5 (Herbicidal rate of 90% or more (almost completely withered)) | 5 (Herbicidal rate of 90% or more (almost completely withered)) | 5 (Herbicidal rate of 90% or more (almost completely withered)) | 5 (Herbicidal rate of 90% or more (almost completely withered)) | 0 (Herbicidal rate of 5% or less (almost no effect)) | 0 (Herbicidal rate of 5% or less (almost no effect)) | 5 (Herbicidal rate of 90% or more (almost completely withered)) | 3 (Herbicidal rate of 40% or more and less than 70%) | 5 (Herbicidal rate of 90% or more (almost completely withered)) | 4 (Herbicidal rate of 70% or more and less than 90%) | 3 (Herbicidal rate of 40% or more and less than 70%) | 3 (Herbicidal rate of 40% or more and less than 70%) | 0 (Herbicidal rate of 5% or less (almost no effect)) | 4 (Herbicidal rate of 70% or more and less than 90%) | 3 (Herbicidal rate of 40% or more and less than 70%) | 4 (Herbicidal rate of 70% or more and less than 90%) | 4 (Herbicidal rate of 70% or more and less than 90%) | 5 (Herbicidal rate of 90% or more (almost completely withered)) | herbicidal effect rating, O: lambsquarters [21]: 4 (Herbicidal rate of 70% or more and less than 90%); herbicidal effect rating, M: velvetleaf [22]: 3 (Herbicidal rate of 40% or more and less than 70%)
CCCC(=O)Oc1c(C)nn(C)c(=O)c1-c1c(-c2ccc(OC)c(F)c2)sc2ccc(F)cc12 [2-087] | 0 (Herbicidal rate of 5% or less (almost no effect)) | 0 (Herbicidal rate of 5% or less (almost no effect)) | 1 (Herbicidal rate of 5% or more and less than 20%) | 5 (Herbicidal rate of 90% or more (almost completely withered)) | 0 (Herbicidal rate of 5% or less (almost no effect)) | 4 (Herbicidal rate of 70% or more and less than 90%) | 0 (Herbicidal rate of 5% or less (almost no effect)) | 0 (Herbicidal rate of 5% or less (almost no effect)) | 5 (Herbicidal rate of 90% or more (almost completely withered)) | 3 (Herbicidal rate of 40% or more and less than 70%) | 5 (Herbicidal rate of 90% or more (almost completely withered)) | 3 (Herbicidal rate of 40% or more and less than 70%) | 0 (Herbicidal rate of 5% or less (almost no effect)) | 0 (Herbicidal rate of 5% or less (almost no effect)) | 0 (Herbicidal rate of 5% or less (almost no effect)) | 2 (Herbicidal rate of 20% or more and less than 40%) | 3 (Herbicidal rate of 40% or more and less than 70%) | 0 (Herbicidal rate of 5% or less (almost no effect)) | 0 (Herbicidal rate of 5% or less (almost no effect)) | 5 (Herbicidal rate of 90% or more (almost completely withered)) | herbicidal effect rating, O: lambsquarters [21]: 5 (Herbicidal rate of 90% or more (almost completely withered)); herbicidal effect rating, M: velvetleaf [22]: 3 (Herbicidal rate of 40% or more and less than 70%)
COc1ccc(-c2sc3ccc(F)cc3c2-c2c(O)c(C)nn(C)c2=O)cc1OC [2-088] | 0 (Herbicidal rate of 5% or less (almost no effect)) | 0 (Herbicidal rate of 5% or less (almost no effect)) | 4 (Herbicidal rate of 70% or more and less than 90%) | 5 (Herbicidal rate of 90% or more (almost completely withered)) | 0 (Herbicidal rate of 5% or less (almost no effect)) | 5 (Herbicidal rate of 90% or more (almost completely withered)) | 3 (Herbicidal rate of 40% or more and less than 70%) | 4 (Herbicidal rate of 70% or more and less than 90%) | 5 (Herbicidal rate of 90% or more (almost completely withered)) | 2 (Herbicidal rate of 20% or more and less than 40%) | 5 (Herbicidal rate of 90% or more (almost completely withered)) | 4 (Herbicidal rate of 70% or more and less than 90%) | 5 (Herbicidal rate of 90% or more (almost completely withered)) | 3 (Herbicidal rate of 40% or more and less than 70%) | 1 (Herbicidal rate of 5% or more and less than 20%) | 0 (Herbicidal rate of 5% or less (almost no effect)) | 5 (Herbicidal rate of 90% or more (almost completely withered)) | 3 (Herbicidal rate of 40% or more and less than 70%) | 0 (Herbicidal rate of 5% or less (almost no effect)) | 5 (Herbicidal rate of 90% or more (almost completely withered)) | herbicidal effect rating, O: lambsquarters [21]: 4 (Herbicidal rate of 70% or more and less than 90%); herbicidal effect rating, M: velvetleaf [22]: 2 (Herbicidal rate of 20% or more and less than 40%)
